pIC50: −log10 of the molar value.
How the values were obtained:
[1] = system: A549 lung cancer xenografts; assay: Xenograft studies, A549 lung tumors in nude mice; type: in vivo; conditions: 2.4 mg/kg
Description: 14 male nude mice (6 weeks old) were injected subcutaneously on both flanks with 2×10^6 A549 cells. […] Tumor sizes were measured 3 times per week, and volumes were calculated using the formula [length (mm)]×[width (mm)]^2/2 (Warburton et al., Clin. Cancer Res. 2004; 10(7): 2512-2524).

[2] = system: HL-60 (human leukemia) cells; conditions: Kang et al. 2003, cited from earlier work
[3] = system: malignant cells (A549, BT20, MCF-7, U2OS); assay: IC50 determination, panel of malignant cell lines; type: cell-based, human
Description: The cancer cell lines used in this study included human lung carcinoma (A549), human breast carcinoma (BT20 and MCF-7) and human osteosarcoma (U2OS), with the normal cell lines human peripheral lung epithelial cells (HPL1A) and human mammary epithelial cells (HMEC) serving as controls. A549, BT20, MCF-7, U2OS and HMEC cells were purchased from American Type Culture Collection (ATCC, USA), and HPL1A cells were obtained from Nagoya University, Japan. A549 and BT20 were grown in RPMI-1640 (Sigma), MCF-7 was grown in Dulbecco's Modified Eagle Medium (DMEM) (Sigma) supplemented with 0.01 mg/ml human recombinant insulin (Sigma), U2OS and HMEC were grown in McCoy's 5A (ATCC), and HPL1A was grown in DMEM/F-12K (Sigma). The mediums were supplemented with 10% Fetal Bovine Serum (FBS) (Gibco), 1% penicillin and streptomycin and incubated in a humidified atmosphere with 5% CO2 at 37° C.
The proliferation inhibition potential of cis- and trans-gnetin H was determined by a fluorescence dye staining method. Cells were seeded in a 96-well tissue culture-treated plate (BD Falcon) at a density of 4000 cells/well, and treated with cis- or trans-gnetin H for 48 hours. AlamarBlue dye (Invitrogen) was used to assess the viability of cells according to the manufacturer's instructions; the fluorescent intensity was read on a SpectraMax M2e microplate reader (Molecular Devices Inc.). […]

[4] = system: L1210 (mouse leukemia) cells; conditions: Ha et al. 2009; cited from earlier work

| pIC50 ([3]; Homo sapiens, 48 h, bone, breast and lung cancer cell lines, 48 hours, read-out: IC50 values in malignant cells (range over cell lines)) | Compound | less increase in size of large tumors compared to the untreated control ([1]; large tumors) [%] | food intake or body weight of treated animals ([1]; nude mice) | less increase in size of small tumors compared to the untreated control ([1]; small tumors) [%] | increase of the sub-G1 population ([2]; HL-60 cells, 25 μM) [%] | pIC50 ([2]; read-out: IC50, viability of HL-60 cells) | more antiproliferation activity than previously reported ([3]; A549, BT20, MCF-7 and U2OS versus literature) | pIC50 [4] |
| --- | --- | --- | --- | --- | --- | --- | --- | --- |
| – | Oc1ccc(/C=C\c2c3c(cc4c2[C@H](c2cc(O)cc(O)c2)[C@@H](c2ccc(O)cc2)O4)O[C@H](c2ccc(O)cc2)[C@H]3c2cc(O)cc(O)c2)cc1 [cis-gnetin H] | 68 | no apparent alteration on food intake or body weight | 39 | – | – | – | – |
| 5.00 to 5.87 | Oc1ccc(/C=C/c2c3c(cc4c2[C@H](c2cc(O)cc(O)c2)[C@@H](c2ccc(O)cc2)O4)O[C@H](c2ccc(O)cc2)[C@H]3c2cc(O)cc(O)c2)cc1 [trans-gnetin H] | – | – | – | 11 | 4.60 | 2-9 fold | 4.40 |
